Test results reported in US20240269139A1, “COMPOUNDS FOR TARGETED PROTEIN DEGRADATION OF KINASES” (DANA-FARBER CANCER INSTITUTE, INC., priority 2020, published 2024).
Where two headings read alike, the source gives them in different places.

Columns and labels:
[1] = molecular target: T1, extended human kinome (kinase-like proteins) (Homo sapiens, UniProt P54886); assay: Whole cell quantitative proteomics: extended kinome hits; conditions: Accession P54886
T1 sequence (P54886 1-795): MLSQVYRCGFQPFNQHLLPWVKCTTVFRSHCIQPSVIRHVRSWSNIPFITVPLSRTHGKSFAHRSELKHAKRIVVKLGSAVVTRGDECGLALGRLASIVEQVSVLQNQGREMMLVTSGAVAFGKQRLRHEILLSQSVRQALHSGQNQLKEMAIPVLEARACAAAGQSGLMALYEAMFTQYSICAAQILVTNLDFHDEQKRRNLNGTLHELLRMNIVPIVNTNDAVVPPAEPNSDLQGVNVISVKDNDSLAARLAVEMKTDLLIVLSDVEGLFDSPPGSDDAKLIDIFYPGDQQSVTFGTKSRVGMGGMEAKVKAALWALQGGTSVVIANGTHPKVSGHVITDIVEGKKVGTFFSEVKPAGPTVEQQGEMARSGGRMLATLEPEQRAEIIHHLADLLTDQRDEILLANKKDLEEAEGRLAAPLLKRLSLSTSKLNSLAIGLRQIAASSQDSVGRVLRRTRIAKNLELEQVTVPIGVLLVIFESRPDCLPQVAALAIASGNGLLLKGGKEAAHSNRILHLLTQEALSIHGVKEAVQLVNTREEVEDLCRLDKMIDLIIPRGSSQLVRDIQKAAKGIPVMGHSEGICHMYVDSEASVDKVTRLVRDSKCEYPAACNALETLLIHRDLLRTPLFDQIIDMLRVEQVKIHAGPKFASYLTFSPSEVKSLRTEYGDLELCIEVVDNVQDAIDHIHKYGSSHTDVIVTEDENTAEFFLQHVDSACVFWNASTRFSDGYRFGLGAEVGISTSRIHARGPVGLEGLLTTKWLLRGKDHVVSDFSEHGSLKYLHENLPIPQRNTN

[2] = molecular target: T2, protein kinases (human kinome) (Homo sapiens, UniProt Q9NYY8); assay type: cell-based; conditions: direction down
T2 sequence (Q9NYY8 1-710): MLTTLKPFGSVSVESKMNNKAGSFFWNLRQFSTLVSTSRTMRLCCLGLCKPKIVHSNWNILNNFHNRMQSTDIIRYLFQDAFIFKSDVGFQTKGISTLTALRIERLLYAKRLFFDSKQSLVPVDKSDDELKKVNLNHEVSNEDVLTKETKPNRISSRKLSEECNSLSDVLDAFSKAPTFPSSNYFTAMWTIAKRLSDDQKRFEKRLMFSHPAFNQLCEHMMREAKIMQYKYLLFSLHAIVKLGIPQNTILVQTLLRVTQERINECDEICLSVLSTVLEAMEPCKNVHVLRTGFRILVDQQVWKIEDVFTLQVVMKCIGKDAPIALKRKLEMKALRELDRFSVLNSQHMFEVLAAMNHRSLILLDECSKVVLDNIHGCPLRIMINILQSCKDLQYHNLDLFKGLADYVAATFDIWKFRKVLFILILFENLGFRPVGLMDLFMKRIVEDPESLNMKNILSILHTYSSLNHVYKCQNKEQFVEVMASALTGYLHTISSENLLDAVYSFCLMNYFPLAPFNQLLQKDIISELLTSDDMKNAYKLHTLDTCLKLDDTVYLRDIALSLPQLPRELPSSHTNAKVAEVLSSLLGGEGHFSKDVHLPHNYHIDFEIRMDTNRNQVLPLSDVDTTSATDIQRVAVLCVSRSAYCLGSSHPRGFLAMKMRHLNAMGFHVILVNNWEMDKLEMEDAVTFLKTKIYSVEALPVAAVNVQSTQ

[3] = system: protein kinases (human kinome); assay type: cell-based; conditions: for logFC of LIMK2: LIMK2 P53671-3; for logFC PDK3: PDK3 (Q15120-2); for logFC ABL1: ABL1 (P00519-2); for logFC of SRC: Accession P12931-2; for logFC LCK: accession P06239-3; for logFC LCK / logFC LCK (P06239-3): direction of change down
[4] = molecular target: T3, protein kinases (human kinome) (Homo sapiens, UniProt O14965); assay type: cell-based
T3 sequence (O14965 1-403): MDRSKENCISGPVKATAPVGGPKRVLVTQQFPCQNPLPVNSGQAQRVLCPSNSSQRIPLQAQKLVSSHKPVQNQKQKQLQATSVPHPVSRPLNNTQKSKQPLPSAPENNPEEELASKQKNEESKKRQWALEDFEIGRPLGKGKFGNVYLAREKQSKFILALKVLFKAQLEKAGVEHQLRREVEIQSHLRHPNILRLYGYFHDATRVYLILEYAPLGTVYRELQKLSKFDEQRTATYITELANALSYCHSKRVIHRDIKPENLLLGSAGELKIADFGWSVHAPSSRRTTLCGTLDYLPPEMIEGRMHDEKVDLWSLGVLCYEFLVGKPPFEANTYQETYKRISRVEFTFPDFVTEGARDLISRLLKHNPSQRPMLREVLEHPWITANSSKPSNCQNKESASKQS

[5] = molecular target: protein kinases (human kinome) (Homo sapiens, UniProt Q9H0K1); assay type: cell-based; conditions: for logFC of SIK2: Accession Q9H0K1; for logFC SIK2 (Q9H0K1): direction of change down
protein kinases (human kinome) (Homo sapiens, UniProt Q9H0K1), sequence (Q9H0K1 whole entry): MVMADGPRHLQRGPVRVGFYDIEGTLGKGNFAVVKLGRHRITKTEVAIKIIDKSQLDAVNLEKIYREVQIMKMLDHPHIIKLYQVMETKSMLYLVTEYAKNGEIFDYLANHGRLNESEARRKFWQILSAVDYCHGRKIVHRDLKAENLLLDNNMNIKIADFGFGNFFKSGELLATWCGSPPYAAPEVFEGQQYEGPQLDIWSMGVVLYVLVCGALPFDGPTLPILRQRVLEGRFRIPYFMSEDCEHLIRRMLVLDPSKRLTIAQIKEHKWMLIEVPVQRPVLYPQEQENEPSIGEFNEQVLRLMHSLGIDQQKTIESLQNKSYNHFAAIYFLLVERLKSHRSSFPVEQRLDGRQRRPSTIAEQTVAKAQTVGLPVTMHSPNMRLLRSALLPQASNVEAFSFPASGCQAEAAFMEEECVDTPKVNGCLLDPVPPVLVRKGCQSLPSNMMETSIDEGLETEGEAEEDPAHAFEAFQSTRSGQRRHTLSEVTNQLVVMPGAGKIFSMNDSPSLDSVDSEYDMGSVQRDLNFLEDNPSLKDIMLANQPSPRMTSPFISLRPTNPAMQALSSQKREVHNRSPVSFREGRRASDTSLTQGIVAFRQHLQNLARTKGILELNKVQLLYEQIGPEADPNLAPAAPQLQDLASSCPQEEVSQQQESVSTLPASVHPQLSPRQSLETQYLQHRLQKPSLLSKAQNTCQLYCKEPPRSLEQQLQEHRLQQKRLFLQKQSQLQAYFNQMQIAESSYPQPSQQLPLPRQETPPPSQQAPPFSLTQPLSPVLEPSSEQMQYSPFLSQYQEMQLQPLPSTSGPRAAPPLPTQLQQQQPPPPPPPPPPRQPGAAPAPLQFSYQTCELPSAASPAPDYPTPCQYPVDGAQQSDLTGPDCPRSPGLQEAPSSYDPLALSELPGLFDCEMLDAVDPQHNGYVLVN

## CC(C)(C)c1nc(-c2cccc(NS(=O)(=O)c3c(F)cccc3F)c2F)c(-c2ccnc(NCCOCCNC(=O)CCOCCOCCNc3cccc4c3C(=O)N(C3CCC(=O)NC3=O)C4=O)n2)s1 (stereo not drawn) [DD.03.106]
[1]; experiment wp147, 1 uM
  logFC ALDH18A1: −0.3463
[1]; experiment wp147, 4 uM
  logFC ALDH18A1: −0.8823
[2]; Experiment wp147, 2 uM
  logFC FASTKD2 (Q9NYY8): −0.3392
[2]; Experiment wp147, 4 uM
  logFC FASTKD2 (Q9NYY8): −0.9073
[3]; ACAD10 (Q6JQN1-5), experiment wp147, 4 uM
  logFC: −0.7404
[3]; Accession Q00537-2, experiment wp137
  logFC of CDK17: −0.8682
[3]; Experiment wp147, 2 uM
  logFC MAP3K20 (Q9NYL2-2): −0.7388
[3]; Experiment wp147, 4 uM
  logFC MAP3K20 (Q9NYL2-2): −0.4901
[3]; GK P32189-3, experiment wp147, 4 uM
  logFC: −0.4811
[3]; LIMK2 (P53671-3), experiment wp047, direction down
  logFC: −0.962
[3]; LIMK2 (P53671-3), experiment wp147, 1 uM, direction down
  logFC: −0.8736
[3]; LIMK2 (P53671-3), experiment wp147, 2 uM, direction down
  logFC: −1.082
[3]; LIMK2 (P53671-3), experiment wp147, 4 uM, direction down
  logFC: −0.9319
[3]; experiment wp047
  logFC of LIMK2: −0.962
[3]; experiment wp147, 1 uM
  logFC of LIMK2: −0.8736
  logFC CDK16 (Q00536-2): −0.5427
[3]; experiment wp147, 2 uM
  logFC of LIMK2: −1.082
  logFC CDK16 (Q00536-2): −0.5385
  logFC MAP3K20 (Q9NYL2-2): −0.7388
[3]; experiment wp147, 4 uM
  logFC of LIMK2: −0.9319
  logFC PDK3: −0.6564
  logFC CDK16 (Q00536-2): −0.4393
  logFC MAP3K20 (Q9NYL2-2): −0.4901
[3]; experiment wp137
  logFC PDK3: −0.3571
  logFC CDK16 (Q00536-2): −1.175
  logFC PDK3 (Q15120-2): −0.3571
  logFC of CDK17 (Q00537-2): −0.8682
[4]; experiment wp147, 4 uM
  logFC AURKA (O14965): −0.3302

## Cc1cnc(Nc2ccc(N3CCN(CCOCCOCCNC(=O)COc4cccc5c4C(=O)N(C4CCC(=O)NC4=O)C5=O)CC3)cc2)nc1Nc1cccc(S(=O)(=O)NC(C)(C)C)c1 (stereo not drawn) [JWG.118]
[1]; experiment wp071
  logFC ALDH18A1: −0.4227
[2]; Experiment wp071
  logFC FASTKD2 (Q9NYY8): −0.4341
[3]; GK P32189-3, experiment wp071
  logFC: −0.4317
[4]; experiment wp071
  logFC AURKA (O14965): −0.8861

## Cn1c(=O)c(-c2c(Cl)cccc2Cl)cc2cnc(Nc3ccc(OCCNC(=O)CCCCCCNC(=O)COc4cccc5c4C(=O)N(C4CCC(=O)NC4=O)C5=O)cc3)nc21 (stereo not drawn) [SB1.G.192.1]
[1]; experiment wp081
  logFC ALDH18A1: −0.39
[2]; Experiment wp081
  logFC FASTKD2 (Q9NYY8): −0.3577
[5]; experiment wp071
  logFC of SIK2: −1.036
[5]; experiment wp081
  logFC of SIK2: −1.196
  logFC SIK2 (Q9H0K1): −1.196
[5]; experiment wp131
  logFC of SIK2: −0.9342
  logFC SIK2 (Q9H0K1): −0.9342
[5]; SIK2 (Q9H0K1), experiment wp071, down
  logFC SIK2: −1.036
[3]; experiment wp071
  logFC ABL1: −1.417
  logFC of SRC: −2.578
  logFC LCK: −1.767
  logFC ABL1 (P00519-2): −1.417
  logFC LCK (P06239-3): −1.767
[3]; experiment wp081
  logFC ABL1: −1.189
  logFC of SRC: −2.113
  logFC ABL1 (P00519-2): −1.189
[3]; Accession P06241-2, experiment wp071
  logFC FYN: −1.595
[3]; Accession P06241-2, experiment wp081
  logFC FYN: −0.9994
[3]; Accession P06241-2, experiment wp131
  logFC FYN: −0.9918
[3]; experiment wp131
  logFC of SRC: −2.127
  logFC LCK: −1.701
  logFC ABL2 (P42684-5): −2.8
  logFC of ABL2 (P42684-5): −2.8
  logFC LCK (P06239-3): −1.701
[3]; Experiment wp071, direction down
  logFC TNK2 (Q07912-3): −1.728
[3]; Experiment wp081, direction down
  logFC TNK2 (Q07912-3): −0.9024
[3]; FYN P06241-2, experiment wp071
  logFC FYN: −1.595
[3]; FYN P06241-2, experiment wp081
  logFC FYN: −0.9994
[3]; FYN P06241-2, experiment wp131
  logFC FYN: −0.9918
[3]; TNK2 (Q07912-3), experiment wp071, direction down
  logFC: −1.728
[3]; TNK2 (Q07912-3), experiment wp081, direction down
  logFC: −0.9024
[4]; experiment wp071
  logFC AURKA (O14965): −0.8111
[4]; experiment wp081
  logFC AURKA (O14965): −0.7299
[4]; experiment wp131
  logFC AURKA (O14965): −0.6267
